Assay results: US12465580B2, “Substituted fatty acids for treating non-alcoholic steatohepatitis” (BASF AS, priority 2015, dated 2025)

Legend:
[1] = tested on: APOE*3Leiden.CETP double transgenic mice; assay: Hepatic inflammation (number of foci, inflammation score) in diet induced NAFLD/NASH mouse model; type: in vivo; details: for Inflammation Score (0-3), Mean ± SD / Inflammation, Number of foci, Mean ± SD: ApoE*3L-CETP mice, high fat/cholesterol diet, liver after 20 weeks of treatment
Experimental: (§1) The APOE*3Leiden.CETP double transgenic mouse is expressing a variant of the human apolipoprotein E3 (APOE3), the APOE*3Leiden, in addition to the human apolipoprotein C1 (APOC1) and CETP. […] By increasing the cholesterol content of the diet in this model, all the characteristics of human NASH develop.
(§2) Studies were performed in APOE*3Leiden.CETP mice placed on a high fat diet (24% fat w/w) with varying cholesterol content (0.25-1% cholesterol w/w). In one study (using 1% cholesterol w/w), after a 3 weeks run-in period 17 (20%) low-responder mice were removed from the study and the remaining 65 mice were sub-divided into groups of 12 mice each (+5 in the control group), matched for plasma cholesterol, triglycerides, blood glucose, body weight and age (t=0) and treatment was started. The mice received a daily gavage between 07 hr00 and 10 hr00 with either Compound N, Reference A or control (corn oil). After 4, 8, 12, 16 and 20 weeks of treatment blood samples were taken after a 5 hour fasting period (also 5 hours after compound or vehicle administration). Plasma cholesterol and triglycerides were measured. After 14 weeks of treatment 5 representative mice from the control group were sacrificed in order to assess the NASH development and to determine the termination of the study. After 20 weeks of treatment mice were sacrificed by CO2 asphyxiation, heparin heart blood was sampled and tissues were collected. Hepatic steatosis, inflammation and collagen content were analyzed.

[2] = tested on: APOE*3Leiden.CETP double transgenic mice; assay: Hepatic cholesterol content (liver lipids) in diet induced NAFLD/NASH mouse model; type: in vivo; details: for Effect on hepatic cholesterol ester vs control: Compound N p<0.001, Reference A p<0.05; for Liver lipids, Cholesterol ester (CE in FIG. 1), AVG ± SD / Liver lipids, Free cholesterol (FC in FIG. 1), AVG ± SD: ApoE*3L-CETP mice, high fat diet, 0.25% cholesterol w/w, daily gavage
Experimental: as §1, §2
(§3) A further study was performed in APOE*3Leiden.CETP mice with a 4-week active treatment arm in mice placed on a high fat diet (24% fat and 0.25% cholesterol diet, both w/w) to collect additional metabolic data.
A mild decrease in cholesterol ester was also observed with Reference A (p<0.05). A 43% reduction in total hepatic cholesterol (statistics not performed).

[3] = tested on: APOE*3Leiden.CETP double transgenic mice; assay: Hepatic steatosis (macrovesicular and microvesicular) in diet induced NAFLD/NASH mouse model; type: in vivo; details: for Steatosis as % of the liver, Macrovesicular, Mean ± SD / Steatosis as % of the liver, Microvesicular, Mean ± SD: ApoE*3L-CETP mice, high fat/cholesterol diet, liver after 20 weeks of treatment; for Effect on macrovesicular steatosis vs control: Compound N p<0.001 vs. control
Experimental: as §1, §2

[4] = tested on: APOE*3Leiden.CETP double transgenic mice; details: earlier study; cited from earlier work
[5] = tested on: APOE*3Leiden.CETP double transgenic mice; assay: Hepatic fibrosis (collagen content) in diet induced NAFLD/NASH mouse model; type: in vivo; details: for Fibrosis, Hydroxyprolin/Prolin, Mean ± SD: ApoE*3L-CETP double transgenic mice, hepatic collagen content, after 20 weeks of treatment
Experimental: as §1, §2

[6] = tested on: APOE*3Leiden.CETP double transgenic mice; assay: Total plasma cholesterol in diet induced NAFLD/NASH mouse model; type: in vivo
Experimental: as §1, §2, §3
Plasma HDL cholesterol values were adoubled (p<0.001, data not shown), underlying the fact that the reduction in plasma cholesterol was specific to the atherogenic apoB particle associated cholesterol fraction.

[7] = tested on: APOE*3Leiden.CETP double transgenic mice; assay: Fecal bile acid content in diet induced NAFLD/NASH mouse model; type: in vivo; details: for Total bile acids (fecal), AVG ± SD: ApoE*3L-CETP double transgenic mice, feces
Experimental: as §1, §2, §3

SMILES | Inflammation Score (0-3), Mean ± SD [1] | Inflammation, Number of foci, Mean ± SD [1] | Effect on hepatic cholesterol ester vs control ([2]; 0.25% cholesterol diet w/w) | Liver lipids, Cholesterol ester (CE in FIG. 1), AVG ± SD [2] [μg lipid/mg liver protein] | Liver lipids, Free cholesterol (FC in FIG. 1), AVG ± SD [2] [μg lipid/mg liver protein] | Steatosis as % of the liver, Macrovesicular, Mean ± SD [3] [%] | Steatosis as % of the liver, Microvesicular, Mean ± SD [3] [%] | Effect on macrovesicular steatosis vs control [3] | Effect on plasma cholesterol, previously shown [4] | Fibrosis, Hydroxyprolin/Prolin, Mean ± SD [5] | Total bile acids (fecal), AVG ± SD [7] [μmol/100 gr mouse/day] | also measured
CC/C=C\C/C=C\C/C=C\C/C=C\C/C=C\CCCCSC(CC)(CC)C(=O)O [Compound N, 2-ethyl-2-((5Z,8Z,11Z,14Z,17Z)-icosa-5,8,11,14,17-pentaenylthio)butanoic Acid] | 0.6 ± 0.8 | 0.6 ± 0.6 | significant decrease | 10.6 ± 2.1 | 9.8 ± 1.2 | 1.1 ± 1.0 | 57.9 ± 25.4 | abolished macrovesicular steatosis | significantly decrease plasma cholesterol | 0.027 ± 0.007 | 3.2 ± 0.6 | Effect on total inflammation score ([1]; vs control): significant reduction; Reduction in the number of inflammatory foci ([1]; vs control, p<0.001): approximately 85%; Reduction in total hepatic cholesterol ([2]; 0.25% cholesterol diet w/w, statistics not performed): 43%; Reduction in hepatic collagen content ([5]; compared to control animals, p<0.005): 30%; Reduction in total plasma cholesterol ([6]; after 4 weeks versus control, p<0.001): 52%; Plasma HDL cholesterol values ([6]; p<0.001, data not shown): doubled; Total plasma cholesterol, t = 0, AVG ± SD ([6]; t = 0 weeks (baseline, start of treatment)): 6.4 ± 1.1 mM; Total plasma cholesterol, t = 2, AVG ± SD ([6]; t = 2 weeks of treatment): 4.2 ± 0.7 mM; Total plasma cholesterol, t = 4, AVG ± SD ([6]; t = 4 weeks of treatment): 4.7 ± 1.3 mM; Reduction in fecal bile acid excretion ([7]; vs control, p=0.006): 50%
CC/C=C\C/C=C\C/C=C\C/C=C\C/C=C\CCCCOC(CC)C(=O)O (stereo not drawn) [Reference A, 2-((5Z,8Z,11Z,14Z,17Z)-icosa-5,8,11,14,17-pentaenyloxy)butanoic acid, reference compound] | 1.9 ± 1.2 | 1.9 ± 1.3 | mild decrease | 17.0 ± 3.7 | 9.5 ± 1.3 | 21.2 ± 15.0 | 34.6 ± 11.8 | No significant effect | significantly decrease plasma cholesterol |  | 4.0 ± 1.2 | Effect on inflammatory foci vs control ([1]; Reference A p<0.01): milder reduction; Effect on fecal bile acid excretion vs control ([7]; p<0.05 vs. control): milder yet significant decrease
CN(CCOc1ccc(CC2SC(=O)NC2=O)cc1)c1ccccn1 (stereo not drawn) [Rosiglitazone] | 1.7 ± 1.2 | 1.6 ± 1.6 |  |  |  | 14.3 ± 20.2 | 52.5 ± 18.4 | No significant effect |  | 0.036 ± 0.007 |  | 
